Assay results reported in the METLIN SMRT retention time set (Domingo-Almenara et al. 2019).

Test: gradient 5% acetonitrile 3 min, to 50% in 2 min, to 85% in 15 min, held 3 min, 100 µL/min
Conditions: column: Zorbax Extend-C18 2.1 x 50 mm; eluents: water / acetonitrile, 0.1% formic acid
Outline: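 Pure standards were run in mixtures of ~100 molecules by HPLC coupled to a quadrupole time-of-flight mass spectrometer. The column was a Zorbax Extend-C18 (2.1 × 50 mm, 1.8 μm) at 100 μL/min, with water and acetonitrile each containing 0.1% formic acid, in positive and negative ionization mode. Dead and dwell volumes were 40 μL and 900 μL. Retention time was taken from computationally picked adduct peaks, each manually inspected, with data collected over 3 months.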
In the case of `COc1ccc(N2CCN(CCNc3cc(C(=O)O)c4ccccc4n3)CC2)cc1`, the RP-LC retention time is reported as 919 s. `CCn1cc(-c2nc(C(=O)NCc3ccccc3F)cs2)c2cccnc21` showed an RP-LC retention time of 987 s. Work on `Cc1cccc(NC(=O)c2cn(C)nc2S(=O)(=O)N2CCSCC2)c1` yielded an RP-LC retention time of 941 s. Compound `Cc1c(Cl)cccc1S(=O)(=O)Nc1ccccc1N1CCNC(=O)C1` has an RP-LC retention time of 738 s. With `COCCNC(=O)Cn1nc(C)c2sc(-c3ccccc3)nc2c1=O` the RP-LC retention time was 682 s. Compound `CCCCOc1ccc(-c2cc3c4nnc(CCC(=O)NCc5ccccc5C)n4ccn3n2)cc1` has an RP-LC retention time of 1010 s. With `CCOC(=O)C1CCCN(C(=O)C2c3ccccc3C(=O)N3CCc4cc(OC)c(OC)cc4C23)C1` (centres undefined) the RP-LC retention time was 766 s. With `O=S(=O)(c1ccccc1Cl)N1CCc2nc(-c3ccccc3)ncc2C1` the RP-LC retention time was 1080 s. `O=C(c1cc(C2CC2)[nH]n1)N1CC(n2cc(COCc3ccccc3)nn2)C1` gave an RP-LC retention time of 730 s. `O=C(Nc1ccc(-c2nc3ccccc3s2)cc1)c1cc(=O)c2ccccc2o1` gave an RP-LC retention time of 1030 s. Work on `CNC(=O)C1CN(C(=O)c2cccc(Cl)c2)CC12CCCC2` (centres undefined) yielded an RP-LC retention time of 726 s. For `c1ccc(-c2nc3nc4c(c(Nc5ccc6c(c5)OCO6)n3n2)CCCC4)cc1`, the RP-LC retention time was 953 s. Compound `CN(C)S(=O)(=O)c1ccc(-c2nnc(C(=O)NCC3CCCCC3)o2)cc1` has an RP-LC retention time of 937 s. With `CCc1cccc(C)c1Nc1c(-c2ccc(OC)cc2)nc2nc(C)cc(C)n12` the RP-LC retention time was 781 s. `CCCCN(C)C(=O)Cn1ccn2nc(-c3ccc(F)cc3)c(CO)c2c1=O` showed an RP-LC retention time of 765 s. `COc1ccccc1N1CCN(CCNS(=O)(=O)c2ccc(F)c(C)c2)CC1` showed an RP-LC retention time of 608 s. Work on `COCCOC(=O)c1c(C)oc2ccc(OC(=O)c3cccs3)cc12` yielded an RP-LC retention time of 1020 s. In the case of `CN1C(=O)Cc2cc(C(=O)NCc3ccccc3C(F)(F)F)ccc21`, the RP-LC retention time is reported as 773 s. `Cn1cc(-c2nc(C(=O)Nc3ccc(Cl)cc3)cs2)c2cccnc21` gave an RP-LC retention time of 1090 s. `CC(C)n1cc(CN2CCC3(CC2)CN(Cc2ccccc2)CC3CO)cn1` (centres undefined) showed an RP-LC retention time of 524 s. For `CCn1c(=O)c(N2CCC(NC(=O)Nc3cc(C)ccc3C)CC2)nc2cccnc21`, the RP-LC retention time was 993 s. With `CCNc1cc(N2CCC(CCC(=O)NCc3cccc(C)c3)CC2)ncn1` the RP-LC retention time was 659 s. `Cc1c(-c2ccnc(N3CCCC3)n2)cnc2nc(-c3ccccc3)nn12` gave an RP-LC retention time of 933 s. For `O=C(c1ccc2c(c1)OCO2)N1CCN(c2ccc(=O)n(-c3ccc(Cl)cc3)n2)CC1`, the RP-LC retention time was 791 s. In the case of `Cc1c(CN2CC3(CCCCC3)CC2COc2ccncc2)cnn1C` (centres undefined), the RP-LC retention time is reported as 565 s. `COCCN1C(=O)Cc2ccccc2C1C(=O)NCc1cccs1` (centres undefined) showed an RP-LC retention time of 715 s. In the case of `CCC(C)NS(=O)(=O)c1cc(-c2nnc(-c3ccccc3)o2)ccc1OC` (centres undefined), the RP-LC retention time is reported as 955 s. With `COc1ccc(N(CCC#N)S(=O)(=O)c2cccc3nsnc23)cc1` the RP-LC retention time was 789 s. In the case of `O=C(NCCc1c[nH]c2ccccc12)c1noc2c1CCc1sccc1-2`, the RP-LC retention time is reported as 1050 s. Compound `CCCN(CC1CCOC1)S(=O)(=O)c1ccccc1C` (centres undefined) has an RP-LC retention time of 904 s. In the case of `Cc1c(-c2nn3c(Cc4ccccc4)nnc3s2)nnn1-c1ccccc1`, the RP-LC retention time is reported as 939 s. `Cc1ccc(NS(=O)(=O)c2cn(CC(C)C)c3ncccc23)cc1F` gave an RP-LC retention time of 953 s. Work on `Clc1ccc(CNc2c(-c3ccc4c(c3)OCCO4)nc3ncccn23)cc1` yielded an RP-LC retention time of 722 s. In the case of `CC(C)n1c(=O)sc2cc(S(=O)(=O)N3CCC(C(=O)NCCC4=CCCCC4)CC3)ccc21`, the RP-LC retention time is reported as 1020 s. Compound `Cc1cc(C)c2c(N3CCCC3)nc(C(=O)Nc3ccccc3C)nc2n1` has an RP-LC retention time of 671 s. `Fc1ccc(-c2noc(-c3nnc(NCCCN4CCOCC4)c4ccccc34)n2)cc1` showed an RP-LC retention time of 700 s. Work on `CCCCC(C(=O)O)C(C)CC(=O)Nc1nc(-c2ccccc2)cs1` (centres undefined) yielded an RP-LC retention time of 982 s. Compound `COc1ccc(S(=O)(=O)N(CC(=O)NO)CC(C)C)cc1` has an RP-LC retention time of 615 s. Compound `CCOc1cc(S(=O)(=O)NCc2ccccn2)ccc1Br` has an RP-LC retention time of 666 s. With `O=C(NCC(c1ccc2c(c1)OCO2)N1CCN(c2ccccc2F)CC1)c1cnccn1` (centres undefined) the RP-LC retention time was 593 s. Compound `COc1ccc(-c2nc(-c3ccc4c(c3)ncn4CCC(=O)N3CCCC3)no2)cc1OC` has an RP-LC retention time of 776 s. Work on `CCOC(=O)N1CCN(C(=O)CSc2ccc(-c3ccco3)nn2)CC1` yielded an RP-LC retention time of 661 s. Work on `CCCN1C(=O)COc2ccc(-c3csc(NC(=O)c4ccc(OC)cc4)n3)cc21` yielded an RP-LC retention time of 1040 s. Compound `O=C(NC1CCCC1)c1ccc(CN2CCN(Cc3ccc(F)cc3)C(=O)C2=O)cc1` has an RP-LC retention time of 768 s.
